Assay results from ChEMBL document CHEMBL2057100, “The optimization of pyridazinone series of glucan synthase inhibitors” (Bioorg Med Chem Lett, 2012).
pIC50: −log10 of the molar value. ≈ marks a conversion by molar mass, not a printed value. Calls of active or inactive are those of the source. The rule behind the calls is not given here.

Tests used:
[1] = test system: Candida albicans; assay: Antifungal activity against Candida albicans C697 infected in normal mouse assessed as increase of host survival at 100 mg/kg, ip measured for 4 days; format: functional; conditions: 96 h, route intraperitoneal
[2] = test system: Candida albicans; assay: Antifungal activity against Candida albicans C697 infected in immune compromised mouse assessed as increase of host survival at 100 mg/kg, ip measured for 4 days; format: functional; conditions: 96 h, route intraperitoneal
[3] = test system: Candida albicans; assay: Antifungal activity against Candida albicans C697 infected in normal mouse assessed as increase of host survival at 5 mg/kg, ip measured for 4 days; format: functional; conditions: 96 h, route intraperitoneal
[4] = test system: Candida albicans; assay: Antifungal activity against Candida albicans C697 infected in immune compromised mouse assessed as increase of host survival at 5 mg/kg, ip measured for 4 days; format: functional; conditions: 96 h, route intraperitoneal
[5] = test system: Candida albicans; assay: Antifungal activity against Candida albicans C697 infected in normal mouse assessed as reduction of fungal burden in kidney at 5 mg/kg, ip; format: functional, organism-based; set-up: dose 5 mg/kg
[6] = test system: Candida albicans; assay: Antifungal activity against Candida albicans C697 infected in immune compromised mouse assessed as reduction of fungal burden in kidney at 5 mg/kg, ip; format: functional, organism-based; set-up: dose 5 mg/kg
[7] = target: T1, Beta-1,3-glucan synthase (Candida albicans, UniProt O13383); assay: Inhibition of 1,3-beta-D-glucan synthase in Candida albicans BWP17 membranes; format: cell membranes
T1 sequence (O13383 whole entry): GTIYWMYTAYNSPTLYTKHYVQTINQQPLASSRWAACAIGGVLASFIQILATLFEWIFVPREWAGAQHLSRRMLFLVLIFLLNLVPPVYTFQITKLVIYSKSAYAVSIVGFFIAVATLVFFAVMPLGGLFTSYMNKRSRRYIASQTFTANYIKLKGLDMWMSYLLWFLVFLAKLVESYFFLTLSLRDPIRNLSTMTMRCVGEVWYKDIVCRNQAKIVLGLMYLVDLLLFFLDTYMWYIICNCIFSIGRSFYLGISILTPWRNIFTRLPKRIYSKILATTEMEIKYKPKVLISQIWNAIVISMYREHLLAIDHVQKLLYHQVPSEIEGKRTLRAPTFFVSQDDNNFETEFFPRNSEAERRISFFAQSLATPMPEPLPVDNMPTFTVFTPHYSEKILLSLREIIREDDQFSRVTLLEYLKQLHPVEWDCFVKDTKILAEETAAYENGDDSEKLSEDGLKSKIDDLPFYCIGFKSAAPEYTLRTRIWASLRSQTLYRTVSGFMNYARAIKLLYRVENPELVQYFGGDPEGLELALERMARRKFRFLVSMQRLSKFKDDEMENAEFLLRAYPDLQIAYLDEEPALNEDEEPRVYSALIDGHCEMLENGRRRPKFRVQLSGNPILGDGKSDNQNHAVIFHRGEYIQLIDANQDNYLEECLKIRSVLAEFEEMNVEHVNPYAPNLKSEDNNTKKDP

[8] = test system: Nakaseomyces glabratus; assay: Antifungal activity against Candida glabrata C624 by broth dilution method; format: functional; conditions: read-out: MIC100
[9] = test system: Candida albicans; assay: Antifungal activity against Candida albicans C693 by broth dilution method; format: functional; conditions: read-out: MIC100
[10] = test system: Rattus norvegicus; assay: AUC (0 to 6 hrs) in rat at 10 mg/kg, po; format: ADME, organism-based, Plasma; set-up: time < 6 hr, dose 10 mg/kg, route oral; conditions: in vivo, 6 h, BLD = below limit of detection

In the case of `Cc1cc(CS(=O)(=O)N2CCN(c3cnn(-c4cccc(Cl)c4)c(=O)c3OCC3(C)CC3)CC2)ccc1N`, the survival at 100 mg/kg [1] was 100% and the survival at 100 mg/kg [2] was 100%.
With `CC[C@H](C)C[C@H](C)CCCCCCCCC(=O)N[C@H]1C[C@@H](O)[C@@H](NCCN)NC(=O)[C@@H]2[C@@H](O)CCN2C(=O)[C@H]([C@H](O)CCN)NC(=O)[C@H]([C@H](O)[C@@H](O)c2ccc(O)cc2)NC(=O)[C@@H]2C[C@@H](O)CN2C(=O)[C@H]([C@@H](C)O)NC1=O` [CASPOFUNGIN] the survival at 5 mg/kg [3] was 100%, the survival at 5 mg/kg [4] was 100% and the Activity [5] was “Active”. For the same compound, the Activity [6] was “Active”.
`O=c1c(OC2CCCC2)c(N2CCN(S(=O)(=O)Cc3cccc(O)c3)CC2)cnn1-c1cc(F)cc(F)c1` was tested, and the pIC50 [7] was 7.04, the MIC [8] was 0.26 µg/mL (≈ 0.476 µM) and the MIC [9] was 2.1 µg/mL (≈ 3.84 µM). The AUC [10] was “BLD”.
